From PubChem BioAssay (NCI)
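GI50 = concentration required for 50% inhibition of growth. TGI denotes the concentration required for complete inhibition of growth.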

Columns and labels:
Experiment in all cases: NCI tumour cell line growth inhibition, 384-well format
OVCAR-8 ovarian = tested on: OVCAR-8 ovarian
NCI/ADR-RES ovarian = tested on: NCI/ADR-RES ovarian
NCI-H23 lung = tested on: NCI-H23 lung
CCRF-CEM leukemia = tested on: CCRF-CEM leukemia
SK-OV-3 ovarian = tested on: SK-OV-3 ovarian
MALME-3M melanoma = tested on: MALME-3M melanoma
HOP-92 NSCLC = tested on: HOP-92 NSCLC
A498 renal = tested on: A498 renal
786-0 renal = tested on: 786-0 renal
SR leukemia = tested on: SR leukemia
SF-539 CNS = tested on: SF-539 CNS
K-562 leukemia = tested on: K-562 leukemia
LOX IMVI melanoma = tested on: LOX IMVI melanoma
OVCAR-3 ovarian = tested on: OVCAR-3 ovarian
COLO 205 colon = tested on: COLO 205 colon
HS 578T breast = tested on: HS 578T breast
RXF 393 renal = tested on: RXF 393 renal
SK-MEL-28 melanoma = tested on: SK-MEL-28 melanoma
NCI-H226 lung = tested on: NCI-H226 lung
NCI-H322M lung = tested on: NCI-H322M lung
MDA-MB-231 breast = tested on: MDA-MB-231 breast
UO-31 renal = tested on: UO-31 renal
MOLT-4 leukemia = tested on: MOLT-4 leukemia
TK-10 renal = tested on: TK-10 renal
PC-3 prostate = tested on: PC-3 prostate
HCT-116 colon = tested on: HCT-116 colon
EKVX NSCLC = tested on: EKVX NSCLC
RPMI-8226 leukemia = tested on: RPMI-8226 leukemia
SF-295 CNS = tested on: SF-295 CNS
HCC-2998 colon = tested on: HCC-2998 colon
NCI-H460 NSCLC = tested on: NCI-H460 NSCLC
ACHN renal = tested on: ACHN renal
UACC-257 melanoma = tested on: UACC-257 melanoma
NCI-H522 lung = tested on: NCI-H522 lung
KM12 colon = tested on: KM12 colon
HL-60(TB) leukemia = tested on: HL-60(TB) leukemia
HOP-62 NSCLC = tested on: HOP-62 NSCLC
M14 melanoma = tested on: M14 melanoma
UACC-62 melanoma = tested on: UACC-62 melanoma
DU-145 prostate = tested on: DU-145 prostate
IGROV1 ovarian = tested on: IGROV1 ovarian
SNB-19 CNS = tested on: SNB-19 CNS
BT-549 breast = tested on: BT-549 breast
A549 NSCLC = tested on: A549 NSCLC
SK-MEL-5 melanoma = tested on: SK-MEL-5 melanoma
HT29 colon = tested on: HT29 colon
SW-620 colon = tested on: SW-620 colon
MDA-MB-468 breast = tested on: MDA-MB-468 breast
SNB-75 CNS = tested on: SNB-75 CNS
SN12C renal = tested on: SN12C renal
HCT-15 colon = tested on: HCT-15 colon
OVCAR-4 ovarian = tested on: OVCAR-4 ovarian
CAKI-1 renal = tested on: CAKI-1 renal
MDA-MB-435 melanoma = tested on: MDA-MB-435 melanoma
T-47D breast = tested on: T-47D breast
SF-268 CNS = tested on: SF-268 CNS
U251 glioblastoma = tested on: U251 glioblastoma

Q: With `CCC(Sc1nnc2c3ccccc3n(CC)c2n1)C(=O)Nc1ccccc1OC` (centres undefined) as the compound, how does the GI50 (OVCAR-8 ovarian) read?
A: > 100 µM

Q: And the TGI (OVCAR-8 ovarian)?
A: > 100 µM

Q: What about the GI50 (NCI/ADR-RES ovarian) of the same compound?
A: > 100 µM

Q: What about the TGI (NCI/ADR-RES ovarian) of the same compound?
A: > 100 µM

Q: And the GI50 (NCI-H23 lung)?
A: 1.67 µM

Q: And the TGI (NCI-H23 lung)?
A: 5.23 µM

Q: What about the GI50 (CCRF-CEM leukemia) of the same compound?
A: > 100 µM

Q: And the TGI (CCRF-CEM leukemia)?
A: > 100 µM

Q: And the GI50 (SK-OV-3 ovarian)?
A: > 100 µM

Q: What about the TGI (SK-OV-3 ovarian) of the same compound?
A: > 100 µM

Q: And the GI50 (MALME-3M melanoma)?
A: > 100 µM

Q: What about the TGI (MALME-3M melanoma) of the same compound?
A: > 100 µM

Q: And the GI50 (HOP-92 NSCLC)?
A: > 100 µM

Q: What about the TGI (HOP-92 NSCLC) of the same compound?
A: > 100 µM

Q: And the GI50 (A498 renal)?
A: 4.74 µM

Q: And the TGI (A498 renal)?
A: > 100 µM

Q: And the GI50 ([…]-0 renal)?
A: > 100 µM

Q: What about the TGI (786-0 renal) of the same compound?
A: > 100 µM

Q: And the GI50 (SR leukemia)?
A: 3.3 µM

Q: What about the TGI (SR leukemia) of the same compound?
A: 5.99 µM

Q: What about the GI50 (SF-539 CNS) of the same compound?
A: > 100 µM

Q: And the TGI (SF-539 CNS)?
A: > 100 µM

Q: And the GI50 (K-562 leukemia)?
A: 7.45 µM

Q: What about the TGI (K-562 leukemia) of the same compound?
A: > 100 µM

Q: And the GI50 (LOX IMVI melanoma)?
A: > 100 µM

Q: And the TGI (LOX IMVI melanoma)?
A: > 100 µM

Q: What about the GI50 (OVCAR-3 ovarian) of the same compound?
A: 3.28 µM

Q: And the TGI (OVCAR-3 ovarian)?
A: > 100 µM

Q: What about the GI50 (COLO 205 colon) of the same compound?
A: > 100 µM

Q: And the TGI (COLO 205 colon)?
A: > 100 µM

Q: What about the GI50 (HS 578T breast) of the same compound?
A: > 100 µM

Q: And the TGI (HS 578T breast)?
A: > 100 µM

Q: What about the GI50 (RXF 393 renal) of the same compound?
A: > 100 µM

Q: What about the TGI (RXF 393 renal) of the same compound?
A: > 100 µM

Q: What about the GI50 (SK-MEL-28 melanoma) of the same compound?
A: > 100 µM

Q: What about the TGI (SK-MEL-28 melanoma) of the same compound?
A: > 100 µM

Q: What about the GI50 (NCI-H226 lung) of the same compound?
A: > 100 µM

Q: And the TGI (NCI-H226 lung)?
A: > 100 µM

Q: And the GI50 (NCI-H322M lung)?
A: 4.91 µM

Q: What about the TGI (NCI-H322M lung) of the same compound?
A: > 100 µM

Q: And the GI50 (MDA-MB-231 breast)?
A: > 100 µM

Q: What about the TGI (MDA-MB-231 breast) of the same compound?
A: > 100 µM

Q: And the GI50 (UO-31 renal)?
A: 3.74 µM

Q: What about the TGI (UO-31 renal) of the same compound?
A: > 100 µM

Q: What about the GI50 (MOLT-4 leukemia) of the same compound?
A: 3.51 µM

Q: And the TGI (MOLT-4 leukemia)?
A: 79.7 µM

Q: What about the GI50 (TK-10 renal) of the same compound?
A: > 100 µM

Q: What about the TGI (TK-10 renal) of the same compound?
A: > 100 µM

Q: What about the GI50 (PC-3 prostate) of the same compound?
A: > 100 µM

Q: What about the TGI (PC-3 prostate) of the same compound?
A: > 100 µM

Q: What about the GI50 (HCT-116 colon) of the same compound?
A: > 100 µM

Q: What about the TGI (HCT-116 colon) of the same compound?
A: > 100 µM

Q: What about the GI50 (EKVX NSCLC) of the same compound?
A: 0.547 µM

Q: And the TGI (EKVX NSCLC)?
A: 5.44 µM

Q: And the GI50 (RPMI-8226 leukemia)?
A: 0.451 µM

Q: What about the TGI (RPMI-8226 leukemia) of the same compound?
A: 1.92 µM

Q: And the GI50 (SF-295 CNS)?
A: > 100 µM

Q: What about the TGI (SF-295 CNS) of the same compound?
A: > 100 µM

Q: What about the GI50 (HCC-2998 colon) of the same compound?
A: > 100 µM

Q: What about the TGI (HCC-2998 colon) of the same compound?
A: > 100 µM

Q: What about the GI50 (NCI-H460 NSCLC) of the same compound?
A: > 100 µM

Q: What about the TGI (NCI-H460 NSCLC) of the same compound?
A: > 100 µM

Q: And the GI50 (ACHN renal)?
A: > 100 µM

Q: What about the TGI (ACHN renal) of the same compound?
A: > 100 µM

Q: What about the GI50 (UACC-257 melanoma) of the same compound?
A: > 100 µM

Q: What about the TGI (UACC-257 melanoma) of the same compound?
A: > 100 µM

Q: And the GI50 (NCI-H522 lung)?
A: > 100 µM

Q: What about the TGI (NCI-H522 lung) of the same compound?
A: > 100 µM

Q: What about the GI50 (KM12 colon) of the same compound?
A: > 100 µM

Q: And the TGI (KM12 colon)?
A: > 100 µM

Q: And the GI50 (HL-60(TB) leukemia)?
A: 0.444 µM

Q: What about the TGI (HL-60(TB) leukemia) of the same compound?
A: 1.48 µM

Q: What about the GI50 (HOP-62 NSCLC) of the same compound?
A: 3.56 µM

Q: What about the TGI (HOP-62 NSCLC) of the same compound?
A: > 100 µM

Q: What about the GI50 (M14 melanoma) of the same compound?
A: > 100 µM

Q: What about the TGI (M14 melanoma) of the same compound?
A: > 100 µM

Q: And the GI50 (UACC-62 melanoma)?
A: > 100 µM

Q: What about the TGI (UACC-62 melanoma) of the same compound?
A: > 100 µM

Q: And the GI50 (DU-145 prostate)?
A: > 100 µM

Q: What about the TGI (DU-145 prostate) of the same compound?
A: > 100 µM

Q: What about the GI50 (IGROV1 ovarian) of the same compound?
A: > 100 µM

Q: What about the TGI (IGROV1 ovarian) of the same compound?
A: > 100 µM

Q: And the GI50 (SNB-19 CNS)?
A: > 100 µM

Q: And the TGI (SNB-19 CNS)?
A: > 100 µM

Q: And the GI50 (BT-549 breast)?
A: > 100 µM

Q: What about the TGI (BT-549 breast) of the same compound?
A: > 100 µM

Q: What about the GI50 (A549 NSCLC) of the same compound?
A: 4.27 µM

Q: What about the TGI (A549 NSCLC) of the same compound?
A: > 100 µM

Q: And the GI50 (SK-MEL-5 melanoma)?
A: 5.43 µM

Q: What about the TGI (SK-MEL-5 melanoma) of the same compound?
A: > 100 µM

Q: What about the GI50 (HT29 colon) of the same compound?
A: > 100 µM

Q: And the TGI (HT29 colon)?
A: > 100 µM

Q: What about the GI50 (SW-620 colon) of the same compound?
A: > 100 µM

Q: And the TGI (SW-620 colon)?
A: > 100 µM

Q: And the GI50 (MDA-MB-468 breast)?
A: 0.229 µM

Q: What about the TGI (MDA-MB-468 breast) of the same compound?
A: 0.475 µM

Q: What about the GI50 (SNB-75 CNS) of the same compound?
A: > 100 µM

Q: And the TGI (SNB-75 CNS)?
A: > 100 µM

Q: What about the GI50 (SN12C renal) of the same compound?
A: 1.18 µM

Q: And the TGI (SN12C renal)?
A: 5.17 µM

Q: What about the GI50 (HCT-15 colon) of the same compound?
A: 7.59 µM

Q: What about the TGI (HCT-15 colon) of the same compound?
A: > 100 µM

Q: What about the GI50 (OVCAR-4 ovarian) of the same compound?
A: > 100 µM

Q: What about the TGI (OVCAR-4 ovarian) of the same compound?
A: > 100 µM

Q: What about the GI50 (CAKI-1 renal) of the same compound?
A: 0.384 µM

Q: And the TGI (CAKI-1 renal)?
A: 2.65 µM

Q: And the GI50 (MDA-MB-435 melanoma)?
A: > 100 µM

Q: And the TGI (MDA-MB-435 melanoma)?
A: > 100 µM

Q: What about the GI50 (T-47D breast) of the same compound?
A: > 100 µM

Q: And the TGI (T-47D breast)?
A: > 100 µM

Q: What about the GI50 (SF-268 CNS) of the same compound?
A: > 100 µM

Q: And the TGI (SF-268 CNS)?
A: > 100 µM

Q: What about the GI50 (U251 glioblastoma) of the same compound?
A: > 100 µM

Q: And the TGI (U251 glioblastoma)?
A: > 100 µM
